From patent US8697701B2, “Solid germicidal composition and disinfection method” (Ueno Fine Chemicals Industry, Ltd., priority 2012, dated 2014)

Legend:
[1] = system: Serratia marcescens (bacterium 1 isolated from a food factory); conditions: preliminary test, sensitization time 5 minutes
Protocol: The following sample bacterium (i) isolated from a food factory was cultured in a BHI bouillon medium at 30° C. for 24 hours. A 0.03 ml of a liquid obtained by diluting the cultured bacterium with a physiological saline solution to the concentration on the order of 10^6 cfu/ml was mixed with respective 3 ml of aqueous solutions, each of which was obtained by diluting an aqueous solution of the above solid germicidal composition (1.0% by weight) with sterile water so that the concentration of the solid germicidal composition would be 0.01, 0.02 and 0.04% by weight, respectively. The obtained mixture was then left at 25° C. for 5 minutes. After sensitization time elapsed, stirring was carried out again. One platinum loop of each mixture was taken and inoculated in 10 ml of a BHI bouillon medium. The medium was incubated at 30° C. for 48 hours. A BHI bouillon medium without inoculation of the bacterium was used as a reference, and turbidity of the medium was compared with the reference by visual inspection to determine the germicidal effect of the aqueous solution of the solid germicidal composition on the bacterium.
Sample Bacterium (i): Serratia marcescens (Bacterium 1 Isolated from a Food Factory)

[2] = cited from earlier work
[3] = system: Serratia marcescens (bacterium 2 isolated from a food factory); assay: Test for inhibition of drug resistance development (repeated MIC, broth microdilution); format: cell-based; conditions: sample bacteria (iii) and (iv), eight MIC rounds, as compared to DDAC
Protocol: According to the standard method (broth microdilution method) of Japanese Society of Chemotherapy, minimal inhibitory concentration (MIC) was continuously measured. The compositions shown in Table 7 were diluted with sterile water to obtain drug solutions with a concentration of the composition of 0.007 to 1.792% by weight, and a nutrient broth medium adjusted to a concentration twice as high as the specified concentration (manufactured by Eiken Chemical Co., Ltd., normal bouillon medium ‘Eiken’ E-MC35) was added thereto in an amount equal to the drug solution. The obtained mixture was stirred and then dispensed to a microtiter plate (96 well) in an amount of 150 μl/well. […] The diluted culture was then seeded in an amount of 7.5 μl/well to the microtiter plate containing the medium prepared as described above. The plate was incubated in a constant temperature oven at 30° C. for 48 hours, the growth of the bacterium was checked by visual inspection, and MIC was determined. […] Using the diluted culture, MIC was determined again in the same manner as described above. MIC was determined eight times in total by repeating the above procedure, and changes in MIC were confirmed.
Sample Bacterium (iii): Serratia marcescens (Bacterium 2 Isolated from a Food Factory)

Row | Compound | solubility in water at 20° C. [2] | other results
1 | CCCCCCCCCC[N+](C)(C)CCCCCCCCCC.[Cl-] [didecyl dimethyl ammonium chloride] | – | maximum concentration up to which proliferation of sample bacterium (i) was not inhibited [1]: > 80 ppm
2 | O=C(O)/C=C/C(=O)O [Fumaric acid] | (solubility 0.51%) | –
3 | CCCCCCCCCC[n+]1ccn(CCCCCCCCCCn2cc[n+](CCCCCCCCCC)c2C)c1C.[Cl-].[Cl-] [1,10-di(3-decyl-2-methylimidazolium)decane dichloride] | – | development of drug-resistant microorganisms [3]: hardly developed
4 | O=C(O)CC(O)C(=O)O (stereo not shown) [Malic acid] | (solubility 55.8%) | –
